Earlier results in US20130295052A1, “NOVEL CONJUGATES FOR TARGETED DRUG DELIVERY” (priority 2010, published 2013).
Like-named read-outs stand apart in the source and are kept apart here.

## CC(=O)O[C@@]12CO[C@@H]1C[C@H](O)[C@@]1(C)C(=O)[C@H](O)C3=C(C)[C@@H](OC(=O)[C@H](O)[C@@H](NC(=O)OC(C)(C)C)c4ccccc4)C[C@@](O)([C@@H](OC(=O)c4ccccc4)[C@H]21)C3(C)C [Taxotere, Docetaxel]
60 mg/m2
  grade 4 neutropenia (<500 cells/mm3), patients: 75%
100 mg/m2
  grade 4 neutropenia (<500 cells/mm3), patients: 85%
60-100 mg/m2
  neutropenia (<2,000 neutrophils/mm3) occurrence: virtually in all patients
